Measurements published in patent publication US20230270104A1, “USE OF ERYTHRITOL COMPOSITIONS AS MAMMAL-SAFE INSECTICIDES” (Drexel University, priority 2020, published 2023).
“Also recorded” adds a separate entry of the source. Like-named read-outs stand apart in the source and are kept apart here.

Legend:
Drosophila melanogaster [1] = experiment: Longevity of adult flies raised on food containing sweeteners; assay type: in vivo; conditions: repeat study, blue-dyed food with 0.0238 g/ml sweetener, FIG. 3
Procedure: All animals were cultured at 25° C., kept at 50-60% humidity, and were raised under a standard 12:12 light dark cycle. For each experimental treatment, n=30 flies were tested in groups of 10 per tube, and three tubes per treatment. Tubes were kept on their side to minimize subject becoming mired in the food. Foods were replaced twice a week. The total number of fruit flies used for these experiments was 780, with 300 used for two initial trials testing mortality among store-brand sweeteners, 210 used for repeating this with blue dye and pure erythritol, 120 for choice trials and 150 for concentration trials.
Standard Drosophila food for larval culturing consisted of water, cornmeal, yeast, molasses, and agar, as previously described (Chakraborty, et al., 2011, PLoS ONE 6: e20799). […] The addition of cornmeal and yeast assured the flies still received sufficient carbohydrates and protein in addition to any effects of the treatment additives.
Drosophila food was combined with an equal weight/volume (0.0238 g/ml) of one non-nutritive sweetener (TRUVIA, EQUAL, SPLENDA, SWEET'NLOW, or PUREVIA) or a control nutritive sweetener (controls: sucrose or corn syrup). Wild type (Canton S) larvae were initially raised on the standard food, and 0-12 hour old adult flies were transferred to foods containing one non-nutritive sweetener or a control treatment. […] The number of dead flies were scored daily.

Drosophila melanogaster [2] = experiment: Erythritol concentration trials, fly longevity; assay type: in vivo
Procedure: Standard fly foods were prepared as previously described, and then were treated with 2M, 1M, 0.5M and 0.1M concentrations of erythritol, using 0.5M sucrose as control. 0 to 24 hour-old Drosophila were placed on these foods and mortality was recorded daily for 35 days as above. Analyses were conducted with SPSS software v. 20 (IBM corporation 2011). Fly longevity data were analyzed using survival analysis with right-hand censoring of subjects that lived to the end of the study or were lost for reasons other than death. Test were run for differences in survival distributions [Pr(flies alive) versus insect age] using the log-rank (Mantel-Cox) test to make all pairwise comparisons among treatments within each experiment.

Drosophila melanogaster [3] = experiment: Two-way food choice experiments, fly longevity; assay type: in vivo; conditions: FIG. 5
Procedure: Foods containing 2 M erythritol, 1M erythritol and 1M sucrose were prepared for paired presentations in open choice tests. In each treatment one food type contained 0.05% brilliant blue FCF (Fisher 50-727-25). The blue dye allowed visual confirmation of feeding on the dyed food in the pair. The flies were presented with access to two food choices by using a modified cotton stopper with approximately a 1.5 cm diameter hole to connect each pair of food tubes.
The final choice treatment was between blue 2M erythritol food and non-blue 1M sucrose food (this treatment provides a comparison with the 1M erythritol/1M erythritol treatment as a test of dilution of toxicity by alternative food sources; blue guts would confirm erythritol was being consumed in the presence of sucrose). The number of flies with visible blue gut contents and mortality daily were recorded for 30 days.
Analyses were conducted with SPSS software v. 20 (IBM corporation 2011). Fly longevity data were analyzed using survival analysis with right-hand censoring of subjects that lived to the end of the study or were lost for reasons other than death. Test were run for differences in survival distributions [Pr(flies alive) versus insect age] using the log-rank (Mantel-Cox) test to make all pairwise comparisons among treatments within each experiment.

fruit flies [4] = experiment: Comparison of erythritol with other human-safe sweet alcohols, fly longevity; assay type: in vivo, Drosophila melanogaster; conditions: 17 days; for longevity, erythritol treatment versus the other treatments: FIG. 6
Procedure: An experiment was conducted to compare the effectiveness of erythritol with other human-safe sweet alcohols: D-mannitol, maltitol, sucrose, and xylitol. The concentration of all sweet alcohols were 1M.
Flies were raised for 17 days on standard fly food that contained 1 M concentrations of each sweetener treatment. Death of flies was recorded daily as before; each treatment was replicated on three vials of 10 flies each for 30 subjects/treatment. Differences in longevity were analyzed using the Kaplan-Meier survival analysis log rank test, making all pairwise comparisons among treatments.

R. flavipes workers = assay type: in vivo, Reticulitermes flavipes
Procedure: Termites used in the survival and choice experiments were collected from three field colonies in Scotland Run Park (39.66° N, 75.05° W) in Clayton, N.J. between April and May 2019. After collection, colonies were maintained in plastic containers with soil and wood from the collection site as a substrate in laboratory conditions (20.8±0.9° C., 49±7% RH). Termites used in the consumption experiment were collected from a single field colony at Cobb's Creek Park (39.94° N, 75.24° W) in Philadelphia, Pa. during September of 2018. Workers were removed from the log and housed within 24 h of collection in 9 cm diameter petri dishes containing damp paper towel as a food source. Dishes were placed in an incubator at 26° C. (relative humidity varied between 40 and 60% across trials, but was consistent among all treatments within each trial). Each petri dish contained 10 workers. Termites used in all experiments measured 3-4 mm in length.
For the survival experiment, unbleached, brown paper towels (12 cm×24 cm, cat no. 01801, Kimberly-Clark Corporation, Neenah, Wis.), were completely submerged for 15 s in solution of distilled water, erythritol (100% purity, NOW foods, Bloomingdale, Ill.) of the below-specified concentrations, and 0.05% Brilliant Blue R-250 dye (cat. no 27816, Sigma-Aldrich, St. Louis, Mo.). The erythritol concentrations used were: 0 M (control), 0.25 M, 0.5 M, 0.75 M, 1.0 M, and 1.25 M. The treated paper towels were removed from solution and allowed to dry horizontally on racks before being cut into squares with an area of 144 cm^2. Papers were thereafter stored dry at room temperature in sealed containers.
Prior to the beginning of the experiment, termites were allowed to acclimate for 3 d to the petri dishes, in order to control for any death due to injury incurred during movement to the petri dishes; this was called the pretrial period. At the beginning of the pretrial period, termites used in the survival experiment were transferred from sections of natural nest kept in laboratory rearing boxes to 9 cm diameter plastic petri dishes lined with brown, unbleached paper towel (12 cm×24 cm) not treated with erythritol. The paper towel was rehydrated with 1 ml of distilled water. Each dish contained 10 workers. After the third (final) day of the pretrial period, dishes were checked for dead termites, assumed to be dead due to injury, and dead termites were replaced with live individuals from a petri dish of extra termites kept in similar conditions.
Following the pretrial period, the experiment was set up: pretrial paper towels were removed and replaced with treated paper towels of the correct erythritol treatment concentration; these were rehydrated with 750 μL of distilled water. Six treatment groups (0 M, 0.25 M, 0.5 M, 0.75 M, 1.0 M, 1.25 M erythritol) were used per colony (n=3 colonies), with three dishes per treatment, each containing 10 termite workers (n=30 workers/treatment/colony, n=540 total workers). Termite mortality was recorded every 24 h for 8 d.
Analyses were performed using SPSS v. 24 (IBM corp. 2016) and. Sigmaplot v.12.5 (Systat Software 2013) software. Differences in survival distributions across concentrations for all colonies, within the colonies, and across colonies were tested using pairwise log-rank Mantel Cox tests in SPSS, with subjects living to the end of the trial or lost to reasons other than death (e.g., escaped or injured) included in the analysis as right-censored values. Mean percent mortality was calculated for each concentration across colonies at 72 and 96 h and a three parameter, best-fit sigmoid curve was fitted to the data in Sigmaplot to assess LC at these time points.

fruit flies [5] = conditions: 0.5 M erythritol food, previous work; cited from earlier work
[6] = 1 M sweetener in standard fly food

In the case of `OC[C@@H](O)[C@@H](O)CO` [erythritol, (2R,3S)-butane-1,2,3,4-tetraol], the “longevity compared to PUREVIA, EQUAL, sucrose and corn syrup” value (Drosophila melanogaster [1]) is reported as “significant decrease in longevity”, the “longevity compared to control food” value (Drosophila melanogaster [2]; 0.1M erythritol in food, observations terminated at 35 days) is reported as “no significant difference in longevity” and the “longevity with increasing erythritol concentration” value (Drosophila melanogaster [2]; 0.1M, 0.5M, 1.0M and 2.0M in food, 35 days, FIG. 4) is reported as “significant decrease in longevity; also recorded: dose-dependent reduction in longevity”. For the same compound, the “longevity compared to control food containing 0.5M sucrose” value (Drosophila melanogaster [2]; 0.5M erythritol in food) was “significant reductions in longevity”, the “longevity compared to control food containing 0.5M sucrose” value (Drosophila melanogaster [2]; 1M erythritol in food) was “significant reductions in longevity” and the “longevity compared to all other treatments” value (Drosophila melanogaster [2]; 2M erythritol in food) was “significant and severe effect on longevity”. For the same compound, the “longevity relative to sucrose:sucrose choice” value (Drosophila melanogaster [3]; choice between 1M sucrose and 1M erythritol) was “significant decrease in longevity; also recorded: significantly decreased longevity”, the “longevity relative to sucrose:sucrose choice” value (Drosophila melanogaster [3]; choice between 1M sucrose and 2M erythritol) was “significant decrease in longevity; also recorded: significantly reduced” and the “toxicity to fruit flies upon ingestion” value (fruit flies [4]; 1 M in standard fly food) was “toxic to fruit flies upon ingestion”. For the same compound, the mean longevity (fruit flies [4]; [6]) was 4.7 ± 0.15 days, the “longevity, erythritol treatment versus the other treatments” value (fruit flies [4]; [6]) was “significantly lower; also recorded: significantly shorter longevity” and the “reduction in mean longevity” value (R. flavipes workers; 0.25 M to 0.5 M) was 1.74 days. The “reduction in mean longevity” value (R. flavipes workers; 0.5-0.75 M) was 0.23 days, the “reduction in mean longevity” value (R. flavipes workers; 0.75-1.0 M) was 0.26 days and the “reduction in mean longevity” value (R. flavipes workers; 1.0-1.25 M) was 0.14 days. The “concentration at which significant effects on longevity start” value (R. flavipes workers; R. flavipes workers, 8 d) was 0.25 M, the “reduction in mean longevity” value (R. flavipes workers; concentration increased from 0 M to 0.25 M, FIG. 10) was 3.77 days and the “time of exposure to reach 50% mortality” value (R. flavipes workers; termites, 0.5 M erythritol filter papers) was at most 2 days. For the same compound, the “time of exposure to reach 50% mortality” value (fruit flies [5]) was 20 days.

For `OC[C@@H](O)[C@@H](O[C@H]1O[C@H](CO)[C@@H](O)[C@H](O)[C@H]1O)[C@H](O)[C@@H](O)CO` [maltitol], the “longevity compared to sucrose (sugar) control” value (“longevity compared to sucrose” below) (fruit flies [4]; [6]) was “did not differ from sugar control; also recorded: did not differ from the control; also recorded: not effective at reducing fly longevity” and the “longevity, erythritol treatment versus the other treatments” value (fruit flies [4]; [6]) was “significantly greater longevity than erythritol-fed flies”.

With `OC[C@@H](O)[C@@H](O)[C@H](O)[C@H](O)CO` [D-mannitol] the “longevity compared to sucrose” value (fruit flies [4]; [6]) was “did not differ from sugar control; also recorded: slightly but significantly reduced longevity; also recorded: almost insignificant insecticidal effect” and the “longevity, erythritol treatment versus the other treatments” value (fruit flies [4]; [6]) was “significantly greater longevity than erythritol-fed flies”.

For `OC[C@@H](O)[C@H](O)[C@@H](O)CO` [xylitol], the “longevity compared to sucrose” value (fruit flies [4]; [6]) was “did not differ from sugar control; also recorded: did not differ from the control; also recorded: not effective at reducing fly longevity” and the “longevity, erythritol treatment versus the other treatments” value (fruit flies [4]; [6]) was “significantly greater longevity than erythritol-fed flies”.

In the case of `OC[C@H]1O[C@@](CO)(O[C@H]2O[C@H](CO)[C@@H](O)[C@H](O)[C@H]2O)[C@@H](O)[C@@H]1O` [sucrose], the “longevity, erythritol treatment versus the other treatments” value (fruit flies [4]; [6]) is reported as “significantly greater longevity than erythritol-fed flies”.
